Each structure is given as a SMILES string.

For assay [1], the system named is formalin-induced mouse paw edema. Nature of the assay: Antiinflammatory activity assay, mouse paw edema test (formalin). In kind it is in vivo, male ddy mice. Conditions: 200 mg orally, 1 hour before 0.05 ml of 0.75% formalin into right hind paw. The procedure: The antiinflammatory activity of the compound of the invention was assayed by the mouse paw edema test. The experiment was performed in groups of 6 male ddy mice weighting 20 g-25 g. The volume of the right hind paw of each mouse was measured with a plethysmograph and 200 mg of the compound of the invention was orally administered. After 1 hour, 0.05 ml of 0.75% formalin as a phlogistic agent was injected subcutaneously into the dorsum of the right hind paw and the foot volume was measured at timed intervals. The edema rate and the percent inhibition was calculated from the values found. [formula]

The subject of assay [2] is lipid peroxide (LPO) in rat brain homogenate. Nature of the assay: Antioxidant activity assay by the method of Stocks (lipid peroxide in brain homogenate, TBA method). To be noted: LPO as MDA per mg protein, 37° C., 60 minutes. In kind it is biochemical, male Wistar rats. The procedure: The antioxidant activity of the compound of the invention was assayed by the method of Stocks.
This experiment was performed using male Wistar rats (about 10 weeks old). After perfusion for removal of blood from the brain, the brain tissue was removed and homogenized in 4 volumes of ice-cooled 0.1M phosphate-NaCl buffer (pH 7.4). The homogenate was centrifuged at 1000×g for 10 minutes and the supernatant was taken. The brain homogenate was diluted with 10 volumes of phosphate-NaCl buffer and a 500 μl portion of the dilution was incubated at 37° C. for 60 minutes. The reaction was quenched by pouring the incubate in ice-water and 490 μl of 0.1M phosphate-NaCl buffer was added. The amount of lipid peroxide (LPO) was determined by the TBA method. The amount of LPO was expressed in the amount of malondialdehyde (MDA) per mg protein. The amount of protein was determined by the method of Lowry.

With `COC(=O)[C@@]1(C)CC[C@]2(C)CC[C@]3(C)C(=CC(=O)[C@@H]4[C@@]5(C)CC[C@H](OP(=O)(O)OC6=C(O)[C@@H]([C@@H](O)CO)OC6=O)C(C)(C)[C@@H]5CC[C@]43C)[C@@H]2C1` [(1), Methyl 3-(L-ascorbyl-2-phosphoryl)-glycyrrhetinate], the “% Inhibition” value in assay [1] (Hour 1) stood at 36.36%; in assay [1] (Hour 4), 37.84%; in assay [2] (Dosage 1 × 10^-3 M) it was 95.3%; in assay [2] (Dosage 1 × 10^-4 M) it was 87.6%.
For `CCOC(=O)[C@@]1(C)CC[C@]2(C)CC[C@]3(C)C(=CC(=O)[C@@H]4[C@@]5(C)CC[C@H](OP(=O)(O)OC6=C(O)[C@@H]([C@@H](O)CO)OC6=O)C(C)(C)[C@@H]5CC[C@]43C)[C@@H]2C1` [(2), Ethyl 3-(L-ascorbyl-2-phosphoryl)-glycyrrhetinate], in that order: 18.84%, 28.72%, 95.4% and 44.7%.
On to `CCCCCCOC(=O)[C@@]1(C)CC[C@]2(C)CC[C@]3(C)C(=CC(=O)[C@@H]4[C@@]5(C)CC[C@H](OP(=O)(O)OC6=C(O)[C@@H]([C@@H](O)CO)OC6=O)C(C)(C)[C@@H]5CC[C@]43C)[C@@H]2C1` [(3), Hexyl 3-(L-ascorbyl-2-phosphoryl)-glycyrrhetinate potassium], for which the “% Inhibition” value is reported as 22.50% in assay [1] (Hour 1), 22.07% in assay [1] (Hour 4), 94.8% in assay [2] (Dosage 1 × 10^-3 M) and 82.5% in assay [2] (Dosage 1 × 10^-4 M).
Consider `CCCCCCCCCCCCOC(=O)[C@@]1(C)CC[C@]2(C)CC[C@]3(C)C(=CC(=O)[C@@H]4[C@@]5(C)CC[C@H](OP(=O)(O)OC6=C(O)[C@@H]([C@@H](O)CO)OC6=O)C(C)(C)[C@@H]5CC[C@]43C)[C@@H]2C1` [(4), Lauryl 3-(L-ascorbyl-2-phosphoryl)-glycyrrhetinate potassium], for which the results for the “% Inhibition” value in assay [1] (Hour 1) and in assay [1] (Hour 4) were 49.03% and 50.57%, respectively.
Take `CCCCCCCCCCCCCCCCCCOC(=O)[C@@]1(C)CC[C@]2(C)CC[C@]3(C)C(=CC(=O)[C@@H]4[C@@]5(C)CC[C@H](OP(=O)(O)OC6=C(O)[C@@H]([C@@H](O)CO)OC6=O)C(C)(C)[C@@H]5CC[C@]43C)[C@@H]2C1` [(5), Stearyl 3-(L-ascorbyl-2-phosphoryl)-glycyrrhetinate potassium]: the “% Inhibition” value in assay [1] (Hour 1) amounted to 31.02%; in assay [1] (Hour 4), 34.42%.
Take `CC1(C)[C@@H](O)CC[C@]2(C)[C@H]3C(=O)C=C4[C@@H]5C[C@@](C)(C(=O)O)CC[C@]5(C)CC[C@@]4(C)[C@]3(C)CC[C@@H]12` [(6), Glycyrrhetic acid]: the “% Inhibition” value is recorded as 16.28% in assay [1] (Hour 1) and 25.37% in assay [1] (Hour 4).

As usually defined, the % Inhibition is the change of the read-out against control, counted positive when it falls.

The values are drawn from US5229378A, “Glycyrrhetic acid derivatives” (Senju Pharmaceutical Co., Ltd., priority 1991, dated 1993).
